{"source": "patent US12043670B2", "about": "“Anti-BCMA antibody-drug conjugates and methods of use” (Eisai R&D Management Co., Ltd., priority 2020, dated 2024)", "key": {"SF3b complex": {"target": "T1, SF3b complex (Homo sapiens, UniProt O75533+Q7RTV0)", "T1 construct": "endogenous in cells; host or cells: nuclear extracts", "assay": "SF3B1 binding / scintillation proximity assay (SPA)", "details": "competition with 2.5 nM [3H]-pladienolide B probe", "protocol": "A scintillation proximity assay was performed to measure the binding affinity of compounds (“payloads”) to the SF3b complex. Batch immobilization of anti-SF3B1 antibody (MBL) to anti-mouse PVT SPA scintillation beads (PerkinElmer) was prepared. For every 2.5 mg of nuclear extracts, 5 μg of anti-SF3B1 antibody and 1.5 mg of beads were mixed in 150 μL PBS. The antibody-bead mixture was incubated for 30 min at room temperature (RT) and centrifuged at 18,000 g for 5 min. 150 μL PBS was used to resuspend every 1.5 mg antibody-bead mixture. The beads were suspended and added to the prepared nuclear extracts. The slurry was incubated for 2 hours at 4° C. with gentle mixing. The beads were then collected by centrifuging at 18,000 g for 5 min, and washed twice with PBS+0.1% Triton X-100. After a final centrifugation step, every 1.5 mg of beads was suspended with 150 μL of PBS. SF3b complexes were tested for [^3H]-labeled pladienolide B probe binding ([^3H]-PB), synthesized as previously described (Kotake et al. (2007) Nat Chem Biol. 3(9):570-5). 100 μL binding reactions were prepared with 50 μL bead slurry and by adding varying concentrations of PB or PB-OH, and after 30 min pre-incubation, 2.5 nM of [^3H]-PB was added. The mixture was incubated for 30 min, and luminescence signals were read using a MicroBeta2 Plate Counter (PerkinElmer). […]"}, "MM1.R cells": {"system": "MM1.R cells", "assay": "CellTiter-Glo cell viability, MM1.R", "assay_type": "cell-based, human", "details": "for GI50: Homo sapiens, MM.1R"}, "OPM2 cells": {"system": "OPM2 cells", "assay": "CellTiter-Glo cell viability, OPM2 (normal serum)", "assay_type": "cell-based, human", "details": "for GI50: Homo sapiens"}, "AMO-1 cells": {"system": "AMO-1 cells", "assay": "6-day CellTiter-Glo cell viability, AMO-1", "assay_type": "cell-based, human"}, "Caco-2 permeability": {"assay": "Caco-2 permeability", "assay_type": "in vitro ADME", "details": "human", "protocol": "Caco-2 cells were cultured for 21 days in transwell 24-well plates at 37° C., 95% humidity, 5% CO2. Integrity of cell monolayer was confirmed by TEER (transepithelial electrical resistance) and Lucifer yellow. Payloads were spiked in duplicate at 10 μM, separately, on both sides of the cell monolayer. Permeability rates from the apical to basolateral (A-B) direction and the basolateral to apical (B-A) direction were determined by sampling aliquots from both chambers immediately after treatment (t=0) and following incubation for 2 hours. Samples were protein precipitated with organic solvent containing internal standard and analyzed by LC-MS/MS (SCIEX; API 5500). The area ratio responses of payload/internal standard over time in both directions were used to generate permeability (cm/sec) values. Efflux ratio was calculated by dividing B-A/A-B. Control compounds for low and high permeability and efflux behaved as expected."}, "PAMPA permeability": {"assay": "PAMPA permeability", "assay_type": "in vitro ADME", "details": "read-out: Stability, Mean, Perm PAMPA"}}, "note": "Where two headings read alike, the source gives them in different places.", "data": [{"smiles": "CC[C@H](O)[C@@H](C)[C@H]1O[C@@H]1C[C@@](C)(O)/C=C/C=C(\\C)[C@H]1OC(=O)C[C@H](O)CC[C@@](C)(O)[C@@H](OC(=O)N2CCNCC2)/C=C/[C@@H]1C", "note": "[D1, (2S,3S,6S,7R,10R,E)-7,10-dihydroxy-2-((R,2E,4E)-6-hydroxy-7-((2R,3R)-3-((2R,3S)-3-hydroxypentan-2-yl)oxiran-2-yl)-6-methylhepta-2,4-dien-2-yl)-3,7-dimethyl-12-oxooxacyclododec-4-en-6-yl piperazine-1-carboxylate]", "values": [{"measurement": "IC50", "setting": "SF3b complex", "result": 21.3, "unit": "nM"}, {"measurement": "GI50", "setting": "MM1.R cells; 96 h, read-out: CTGlo Mean GI50 MM1.R 96 h", "result": 147, "unit": "nM"}, {"measurement": "GI50", "setting": "MM1.R cells; 144 h", "result": 89.3, "unit": "nM"}, {"measurement": "AUC (nM * % relative viability)", "setting": "MM1.R cells; MM1R cells, 6 days", "result": 640.2408, "unit": "nM * % relative viability"}, {"measurement": "LD50", "setting": "MM1.R cells; MM1R cells, 6 days, CellTiter-Glo", "result": 283.0093, "unit": "nM"}, {"measurement": "RminAve", "setting": "MM1.R cells; MM1R cells, 6 days, negative = cell death vs T0", "result": "−99.9109", "unit": "%"}, {"measurement": "CTGlo Mean LD50 MM1.R 96 h", "setting": "MM1.R cells; payload alone, MM1.R, 96 h", "result": 510.8, "unit": "nM"}, {"measurement": "GI50", "setting": "OPM2 cells; OPM-2, 96 h, read-out: CTGlo Mean GI50 OPM2 96 h", "result": 287, "unit": "nM"}, {"measurement": "GI50", "setting": "OPM2 cells; OPM-2, 144 h", "result": 117, "unit": "nM"}, {"measurement": "AUC (nM * % relative viability)", "setting": "OPM2 cells; OPM2 cells, 6 days", "result": 649.8734, "unit": "nM * % relative viability"}, {"measurement": "LD50", "setting": "OPM2 cells; OPM2 cells, 6 days, CellTiter-Glo", "result": 256.8053, "unit": "nM"}, {"measurement": "RminAve", "setting": "OPM2 cells; OPM2 cells, 6 days, negative = cell death vs T0", "result": "−99.7805", "unit": "%"}, {"measurement": "CTGlo Mean LD50 OPM2 96 h", "setting": "OPM2 cells; payload alone, OPM2, 96 h", "result": 67.1, "unit": "nM"}, {"measurement": "AUC (nM * % relative viability)", "setting": "AMO-1 cells; AMO1 cells, 6 days", "result": 797.7136, "unit": "nM * % relative viability"}, {"measurement": "LD50", "setting": "AMO-1 cells; AMO1 cells, 6 days, CellTiter-Glo", "result": 1689.735, "unit": "nM"}, {"measurement": "RminAve", "setting": "AMO-1 cells; AMO1 cells, 6 days, negative = cell death vs T0", "result": "−99.4709", "unit": "%"}, {"measurement": "GI50", "setting": "AMO-1 cells; Homo sapiens, AMO1, 144 h", "result": 567, "unit": "nM"}, {"measurement": "efflux ratio at 2 h, 10 μM", "setting": "Caco-2 permeability; B-A/A-B", "result": 1.5}, {"measurement": "Papp A→B at 2 h, 10 μM", "setting": "Caco-2 permeability; apical to basolateral, 10 μM, 2 hours, read-out: Permeability, Mean, Caco-2 A-B Perm", "result": 0.2, "unit": "×10⁻⁶ cm/s"}, {"measurement": "Papp B→A at 2 h, 10 μM", "setting": "Caco-2 permeability; basolateral to apical, 10 μM, 2 hours, read-out: Permeability, Mean, Caco-2 B-A Perm", "result": 0.3, "unit": "×10⁻⁶ cm/s"}, {"measurement": "Papp", "setting": "PAMPA permeability", "result": "< 0.1", "unit": "×10⁻⁶ cm/s"}]}]}
